{"source": "patent US7893256B2", "about": "“Azabicycloalkane compounds” (Theravance, Inc., priority 2003, dated 2011)", "key": {"[1]": {"molecular_target": "T1, M3 muscarinic receptor (hM3) (Homo sapiens, UniProt P20309)", "T1 construct": "expressed in transfected cells; membranes", "T1 sequence (P20309 whole entry)": "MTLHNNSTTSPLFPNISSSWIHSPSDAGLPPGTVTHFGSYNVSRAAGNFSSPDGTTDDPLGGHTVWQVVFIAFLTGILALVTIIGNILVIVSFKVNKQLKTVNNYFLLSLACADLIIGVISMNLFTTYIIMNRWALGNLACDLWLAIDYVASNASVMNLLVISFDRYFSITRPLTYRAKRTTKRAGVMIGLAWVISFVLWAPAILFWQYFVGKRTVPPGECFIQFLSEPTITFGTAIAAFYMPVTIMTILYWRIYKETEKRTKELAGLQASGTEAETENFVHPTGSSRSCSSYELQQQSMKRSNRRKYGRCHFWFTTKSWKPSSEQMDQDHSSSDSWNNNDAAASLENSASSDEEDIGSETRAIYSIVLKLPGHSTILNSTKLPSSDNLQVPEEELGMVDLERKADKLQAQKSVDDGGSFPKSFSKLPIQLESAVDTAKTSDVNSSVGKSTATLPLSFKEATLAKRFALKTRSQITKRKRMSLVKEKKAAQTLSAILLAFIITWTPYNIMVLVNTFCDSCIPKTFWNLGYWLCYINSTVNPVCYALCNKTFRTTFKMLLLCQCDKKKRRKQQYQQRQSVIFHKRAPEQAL", "assay": "Radioligand binding assay for muscarinic receptors (Assay Test Procedure B)", "conditions": "radioligand displacement, CHO cell membranes, [3H]-NMS", "method": "CHO cell lines stably expressing cloned human hM1, hM2, hM3 and hM4 muscarinic receptor subtypes, respectively, were grown to near confluency in HAM's F-12 media supplemented with 10% FBS and 250 μg/mL Geneticin. The cells were grown in a 5% CO2, 37° C. incubator and lifted with 2 mM EDTA in dPBS. Cells were collected by 5 minute centrifugation at 650×g, and cell pellets were either stored frozen at −80° C. or membranes were prepared immediately for use. For membrane preparation, cell pellets were resuspended in lysis buffer and homogenized with a Polytron PT-2100 tissue disrupter (Kinematica AG; 20 seconds×2 bursts). Crude membranes were centrifuged at 40,000×g for 15 minutes at 4° C. […] The protein concentration of the membrane suspension was determined by the method described in Lowry et al., 1951, Journal of Biochemistry, 193, 265. […]\nRadioligand binding assays for cloned human muscarinic receptors were performed in 96-well microtiter plates in a total assay volume of 100 μL. […] Filter plates were rinsed three times with wash buffer (10 mM HEPES) to remove unbound radioactivity. […] The plates were then counted in a PerkinElmer Topcount liquid scintillation counter (PerkinElmer Inc., Wellesley, Mass.). Binding data were analyzed by nonlinear regression analysis with the GraphPad Prism Software package (GraphPad Software, Inc., San Diego, Calif.) using the one-site competition model. […]"}, "hM3 receptor": {"molecular_target": "T2, hM3 receptor (Homo sapiens, UniProt P20309)", "T2 construct": "expressed in transfected cells", "T2 sequence (P20309 whole entry)": "as above", "assay": "Blockade of agonist-mediated calcium release via FLIPR assays (Assay Test Procedure D, C)", "type": "cell-based", "conditions": "CHO cells stably expressing the hM3 receptor", "from_the_text": "Muscarinic receptor subtypes (M1, M3 and M5 receptors), which couple to Gq proteins, activate the phospholipase C (PLC) pathway upon agonist binding to the receptor. As a result, activated PLC hydrolyzes phosphatyl inositol diphosphate (PIP2) to diacylglycerol (DAG) and […] (IP3), which in turn generates calcium release from intracellular stores, i.e., endoplasmic and sarcoplasmic reticulum. The FLIPR (Molecular Devices, Sunnyvale, Calif.) assay capitalizes on this increase in intracellular calcium by using a calcium sensitive dye (Fluo-4AM, Molecular Probes, Eugene, Oreg.) that fluoresces when free calcium binds. This fluorescence event is measured in real time by the FLIPR, which detects the change in fluorescence from a monolayer of cells cloned with human M1 and M3, and chimpanzee M5 receptors. Antagonist potency can be determined by the ability of antagonists to inhibit agonist-mediated increases in intracellular calcium. […]\nTo determine antagonist potency, the dose-dependent stimulation of intracellular Ca^2+ release for oxotremorine was first determined so that antagonist potency can later be measured against oxotremorine stimulation at an EC90 concentration. […]\nThe change of fluorescence is expressed as maximum fluorescence minus baseline fluorescence for each well. […]"}}, "note": "pKi: −log10 of the molar value."}
{"smiles": "C[N+]1(CCCCCCCCCNC[C@H](O)c2ccc(O)c3[nH]c(=O)ccc23)C2CC(OC(=O)C(O)(c3cccs3)c3cccs3)CC1C1OC12.C[N+]1(CCCCCCCCCNC[C@H](O)c2ccc(O)c3[nH]c(=O)ccc23)C2CC(OC(=O)C(O)(c3cccs3)c3cccs3)CC1C1OC12.O=C([O-])C(F)(F)F.O=C([O-])C(F)(F)F", "note": "(stereo partly drawn) [Example 1, 7-(2-Hydroxy-2,2-dithiophen-2-ylacetoxy)-9-{9-[(R)-2-hydroxy-2-(8-hydroxy-2-oxo-1,2-dihydroquinolin-5-yl)ethylamino]nonyl}-9-methyl-3-oxa-9-azonia-tricyclo[3.3.1.0^2,4]nonane Ditrifluoroacetate]", "values": [{"measurement": "pKi", "setting": "[1]", "result": "> 7.30"}, {"measurement": "pKi", "setting": "hM3 receptor", "result": "> 7.30"}]}
